The source of these data is PubChem BioAssay (NCI).

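Method: 48-hour compound exposure of cells in 96-well plates, five concentrations, linear interpolation of endpoints. Definition used: TGI = concentration required for complete inhibition of growth.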

Holding throughout (assay): NCI-60 cell line screen, 48 h
Assay [1] relates to MDA-MB-231 breast.
Assay [2] deals with HCT-116 colon.
For assay [3], the system named is HCT-15 colon.
Assay [4] deals with DU-145 prostate.
Assay [5] relates to KM12 colon.
Assay [6] concerns SK-OV-3 ovarian.
The subject of assay [7] is CCRF-CEM leukemia.
The subject of assay [8] is SK-MEL-5 melanoma.
Assay [9] deals with MOLT-4 leukemia.
Assay [10] relates to OVCAR-4 ovarian.
For assay [11], the system named is MDA-N.
In assay [12] the test system is SN12C renal.
The test system of assay [13] is HT29 colon.
Assay [14] relates to U251 CNS.
Assay [15] has as its system ACHN renal.
The subject of assay [16] is HCC-2998 colon.
In assay [17] the test system is SF-268 CNS.
The subject of assay [18] is HS 578T breast.
Assay [19] relates to MALME-3M melanoma.

With `CCCCOCn1c(=O)[nH]c(=O)c2ccccc21`, the TGI in assay [1], in [2], in assay [3], in assay [4], in [5] and in assay [6] was greater than 100 µM each time. For the same compound, the TGI in assay [7], in [8], in assay [9], in [10], in assay [11] and in [12] was greater than 100 µM in each case. The TGI in assay [13], in [14] and in [15] was greater than 100 µM throughout.
`O=C1CCCC2=C1CC1=C(CCCC1=O)N2c1ccccc1C(=O)O`: the TGI in [16], in [3], in [17], in assay [5], in assay [6] and in assay [7] was greater than 100 µM each time. Also, the TGI in [8], in [9], in assay [10], in [12], in [13] and in [14] was greater than 100 µM in each case. Moreover, the TGI in [18] and in assay [15] was greater than 100 µM throughout.
Consider `COc1ccc2c(c1)CCN=C2Cc1ccccc1CCCl`, for which the TGI was 42.1 µM in [16]; 44.1 µM in assay [1]; greater than 100 µM in [2]; greater than 100 µM in assay [3]; greater than 100 µM in [17]; greater than 100 µM in assay [4]. The TGI in assay [5] was 74.6 µM; in assay [6], greater than 100 µM; in [7], greater than 100 µM; in assay [8] it was 36.6 µM; in assay [9] it was greater than 100 µM; in assay [10], greater than 100 µM. The TGI in assay [12] was 72.5 µM; in assay [13] it was 55 µM; in assay [14], greater than 100 µM; in assay [18], greater than 100 µM; in assay [15], 79.2 µM.
Turning to `COC(=O)C(Cc1ccccc1)NC(=O)C(CCC(=O)OCc1ccccc1)NC(=O)OC(C)(C)C` (stereo not given), the TGI in [16], in assay [1], in assay [2], in assay [3], in assay [17] and in [4] was greater than 100 µM throughout. Also, the TGI in assay [5], in assay [6], in assay [7], in assay [8], in assay [9] and in [10] was greater than 100 µM each time. Besides, the TGI in [12], in [13], in assay [14], in assay [18], in [15] and in [19] was greater than 100 µM each time.
As to `Cc1cccc(NC(=S)Nc2ccc([N+](=O)[O-])cc2)n1`, the TGI in [16], in assay [1], in assay [2], in [3], in assay [17] and in assay [4] was greater than 100 µM each time. The TGI in [5], in assay [6], in assay [7], in [8], in assay [9] and in assay [10] was greater than 100 µM in each case. The TGI in assay [13], in assay [14], in [18] and in assay [15] was greater than 100 µM in each case.
Turning to `Cc1[nH]n(C2=NCCN2)c(=O)c1C`, the TGI in [1], in [2], in assay [3], in assay [17], in [5] and in assay [6] was greater than 100 µM throughout. Also, the TGI in assay [7], in [8], in assay [9], in [10], in assay [13] and in [14] was greater than 100 µM each time. Also, the TGI in assay [18], in assay [15] and in assay [19] was greater than 100 µM in each case.
Turning to `Cc1cc2nc3c(C#N)c(-c4ccccc4)/c(=C\Nc4ccc(Cl)cc4)c(=O)n3c2cc1C`, the TGI in assay [16], in assay [1], in assay [2], in [3], in [17] and in assay [5] was greater than 100 µM each time. In addition, the TGI in [6], in assay [7], in [8], in assay [10], in [11] and in [12] was greater than 100 µM in each case. Besides, the TGI in assay [14], in assay [15] and in assay [19] was greater than 100 µM throughout.
